# Results published in patent publication US20100298141A1, “SUBSTITUTED PYRIDINE N-OXIDE HERBICIDES” (E. I. DU PONT DE NEMOURS AND COMPANY, priority 2007, published 2010).
# Legend:
# [1] = tested on: barnyardgrass; test: Test A pre-/postemergence greenhouse test; assay type: in vivo, Echinochloa crus-galli; conditions: for Barnyardgrass plant response rating: 0 to 100 scale; for Plant response rating, Barnyardgrass: 0 to 100 scale where 0 is no effect and 100 is complete control
# Method in brief: (§1)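 Greenhouse herbicide screen, pre- and postemergence in parallel. Soil: loam plus sand. Formulation: non-phytotoxic solvent mix with surfactant. Postemergence stage: one to two leaves, 2–10 cm height. Evaluation: visual injury, compared with untreated controls, about 10 days after treatment.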
# [2] = tested on: crabgrass; test: Test A pre-/postemergence greenhouse test; assay type: in vivo, Digitaria sanguinalis; conditions: for Crabgrass, Large plant response rating: 0 to 100 scale; for Plant response rating, Crabgrass, Large: 0 to 100 scale where 0 is no effect and 100 is complete control
# Method in brief: as §1
# [3] = tested on: wheat; test: Test A pre-/postemergence greenhouse test; assay type: in vivo, Triticum aestivum; conditions: for Wheat plant response rating: 0 to 100 scale; for Plant response rating, Wheat: 0 to 100 scale where 0 is no effect and 100 is complete control
# Method in brief: as §1
# [4] = tested on: corn; test: Test A pre-/postemergence greenhouse test; assay type: in vivo, Zea mays; conditions: for Corn plant response rating: 0 to 100 scale; for Plant response rating, Corn: 0 to 100 scale where 0 is no effect and 100 is complete control
# Method in brief: as §1
# [5] = tested on: Italian ryegrass; test: Test C pre-/postemergence test; assay type: in vivo, Lolium multiflorum
# Method in brief: (§2)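 Compounds in a non-phytotoxic solvent with surfactant applied preemergence to seeded pots and, at the same time, postemergence to plants 2–18 cm tall (1- to 4-leaf stage). Paddy tests: pots flooded to 3 cm, compound applied into the water, depth held throughout.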
# [6] = tested on: Surinam grass; test: Test C pre-/postemergence test; assay type: in vivo, Brachiaria decumbens
# Method in brief: as §2
# [7] = tested on: corn; test: Test C pre-/postemergence test; assay type: in vivo, Zea mays
# Method in brief: as §2
# [8] = tested on: crabgrass; test: Test C pre-/postemergence test; assay type: in vivo, Digitaria sanguinalis
# Method in brief: as §2
# [9] = tested on: giant foxtail; test: Test C pre-/postemergence test; assay type: in vivo, Setaria faberii
# Method in brief: as §2
# [10] = tested on: Goosegrass; test: Test C pre-/postemergence test; assay type: in vivo, Eleusin indica
# Method in brief: as §2
# [11] = tested on: johnsongrass; test: Test C pre-/postemergence test; assay type: in vivo, Sorghum halepense
# Method in brief: as §2
# [12] = tested on: morningglory; test: Test C pre-/postemergence test; assay type: in vivo, Ipomoea coccinea
# Method in brief: as §2
# [13] = tested on: eastern black nightshade; test: Test C pre-/postemergence test; assay type: in vivo, Solanum ptycanthum
# Method in brief: as §2
# [14] = tested on: pigweed; test: Test C pre-/postemergence test; assay type: in vivo, Amaranthus retroflexus
# Method in brief: as §2
# [15] = tested on: common (oilseed) sunflower; test: Test C pre-/postemergence test; assay type: in vivo, Helianthus annuus
# Method in brief: as §2
# [16] = tested on: velvetleaf; test: Test C pre-/postemergence test; assay type: in vivo, Abutilon theophrasti
# Method in brief: as §2
# [17] = tested on: umbrella sedge; test: Test C flooded paddy test; assay type: in vivo, Cyperus difformis; conditions: Flood
# Method in brief: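 Pots were flooded to 3 cm above the soil surface at treatment, compound applied directly to the paddy water, and that depth held throughout. Plants were kept in a greenhouse for 13 to 15 days, then visually rated against untreated controls.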
# [18] = Postemergence, 125 g ai/ha, 0 is no effect, 100 is complete control
# [19] = Postemergence, 500 g ai/ha, 0 is no effect, 100 is complete control
# [20] = Preemergence, 125 g ai/ha, 0 no effect, 100 complete control
# [21] = 31 g ai/ha, Preemergence, scale 0 to 100
# [22] = 62 g ai/ha, preemergence, scale 0 (no effect) to 100 (complete control)
# [23] = preemergence, 125 g ai/ha, scale 0 (no effect) to 100 (complete control)
# [24] = 62 g ai/ha, Preemergence, scale 0 to 100
# [25] = 125 g ai/ha, preemergence, scale 0 (no effect) to 100 (complete control)
# [26] = Preemergence, 31 g ai/ha, scale 0 to 100 (0 no effect, 100 complete control)
# [27] = preemergence, 250 g ai/ha, scale 0 (no effect) to 100 (complete control)
smiles,measurement,setting,value
Cc1cc[n+]([O-])c(S(=O)(=O)C(C)c2c(C(F)(F)F)nn(C)c2OC(F)F)c1 (centres unmarked) [Compound 11],Barnyardgrass plant response rating,[1]; [18],70
same,Barnyardgrass plant response rating,[1]; [19],80
same,Barnyardgrass plant response rating,[1]; [20],90
same,"Plant response rating, Barnyardgrass","[1]; Preemergence, 500 g ai/ha",100
same,"Crabgrass, Large plant response rating",[2]; [18],70
same,"Crabgrass, Large plant response rating",[2]; [19],80
same,"Crabgrass, Large plant response rating",[2]; [20],90
same,"Plant response rating, Crabgrass, Large","[2]; Preemergence, 500 g ai/ha",100
same,Wheat plant response rating,[3]; [18],50
same,Wheat plant response rating,[3]; [19],60
same,Wheat plant response rating,[3]; [20],50
same,"Plant response rating, Wheat","[3]; Preemergence, 500 g ai/ha",80
same,Corn plant response rating,[4]; [18],30
same,Corn plant response rating,[4]; [19],50
same,Corn plant response rating,[4]; [20],30
same,"Plant response rating, Corn","[4]; Preemergence, 500 g ai/ha",60
same,"Ryegrass, Italian plant response rating",[5]; [21],0
same,"Ryegrass, Italian plant response rating",[5]; [22],40
same,"Plant response rating (0 to 100), Ryegrass, Italian","[5]; Preemergence, 250 g ai/ha",80
same,"Ryegrass, Italian plant response rating",[5]; [23],70
same,Surinam Grass plant response rating,[6]; [22],80
same,"Plant response rating (0 to 100), Surinam Grass","[6]; Preemergence, 250 g ai/ha",100
same,Surinam Grass plant response rating,[6]; [23],95
same,Corn plant response rating,[7]; [21],0
same,Corn plant response rating,[7]; [22],50
same,"Plant response rating (0 to 100), Corn","[7]; Preemergence, 250 g ai/ha",98
same,Corn plant response rating,[7]; [23],98
same,"Crabgrass, Large plant response rating",[8]; [21],100
same,"Crabgrass, Large plant response rating",[8]; [22],100
same,"Plant response rating (0 to 100), Crabgrass, Large","[8]; Preemergence, 250 g ai/ha",100
same,"Crabgrass, Large plant response rating",[8]; [23],100
same,"Foxtail, Giant plant response rating",[9]; [21],80
same,"Foxtail, Giant plant response rating",[9]; [22],98
same,"Plant response rating (0 to 100), Foxtail, Giant","[9]; Preemergence, 250 g ai/ha",100
same,Goosegrass plant response rating,[10]; [21],100
same,Goosegrass plant response rating,[10]; [22],100
same,"Plant response rating (0 to 100), Goosegrass","[10]; Preemergence, 250 g ai/ha",100
same,Goosegrass plant response rating,[10]; [23],100
same,Johnsongrass plant response rating,[11]; [21],100
same,Johnsongrass plant response rating,[11]; [22],100
same,"Plant response rating (0 to 100), Johnsongrass","[11]; Preemergence, 250 g ai/ha",100
same,Johnsongrass plant response rating,[11]; [23],100
same,Morningglory plant response rating,[12]; [21],98
same,Morningglory plant response rating,[12]; [22],100
same,"Plant response rating (0 to 100), Morningglory","[12]; Preemergence, 250 g ai/ha",100
same,Morningglory plant response rating,[12]; [23],100
same,Nightshade plant response rating,[13]; [21],95
same,Nightshade plant response rating,[13]; [22],100
same,"Plant response rating (0 to 100), Nightshade","[13]; Preemergence, 250 g ai/ha",100
same,Nightshade plant response rating,[13]; [23],100
same,Pigweed plant response rating,[14]; [21],100
same,Pigweed plant response rating,[14]; [22],100
same,"Plant response rating (0 to 100), Pigweed","[14]; Preemergence, 250 g ai/ha",100
same,Pigweed plant response rating,[14]; [23],100
same,Sunflower plant response rating,[15]; [22],30
same,"Plant response rating (0 to 100), Sunflower","[15]; Preemergence, 250 g ai/ha",98
same,Sunflower plant response rating,[15]; [23],98
same,Velvetleaf plant response rating,[16]; [22],70
same,"Plant response rating (0 to 100), Velvetleaf","[16]; Preemergence, 250 g ai/ha",100
same,Velvetleaf plant response rating,[16]; [23],100
same,"Plant response rating, Sedge, Umbrella","[17]; 31 g ai/ha, scale 0 to 100 (0 no effect, 100 complete control)",0
same,"Plant response rating, Sedge, Umbrella","[17]; 62 g ai/ha, scale 0 to 100, 0 no effect, 100 complete control, 13 to 15 days",90
same,"Plant response rating, Sedge, Umbrella","[17]; 125 g ai/ha, scale 0 to 100, 0 no effect, 100 complete control, 13 to 15 days",90
same,"Plant response rating, Sedge, Umbrella","[17]; 250 g ai/ha, scale 0 to 100 (0 no effect, 100 complete control)",90
CCc1cc[n+]([O-])c([S+]([O-])Cc2c(C(F)(F)F)nn(C)c2OCC(F)(F)F)c1 (centres unmarked) [Compound 59],"Plant response rating, Barnyardgrass","[1]; Postemergence, 125 g ai/ha",80
same,Barnyardgrass plant response rating,[1]; [19],90
same,Barnyardgrass plant response rating,[1]; [20],100
same,"Plant response rating, Barnyardgrass","[1]; Preemergence, 500 g ai/ha",100
same,"Plant response rating, Crabgrass, Large","[2]; Postemergence, 125 g ai/ha",50
same,"Crabgrass, Large plant response rating",[2]; [19],90
same,"Crabgrass, Large plant response rating",[2]; [20],90
same,"Plant response rating, Crabgrass, Large","[2]; Preemergence, 500 g ai/ha",100
same,"Plant response rating, Wheat","[3]; Postemergence, 125 g ai/ha",60
same,Wheat plant response rating,[3]; [19],70
same,Wheat plant response rating,[3]; [20],60
same,"Plant response rating, Wheat","[3]; Preemergence, 500 g ai/ha",90
same,"Plant response rating, Corn","[4]; Postemergence, 125 g ai/ha",50
same,Corn plant response rating,[4]; [19],70
same,Corn plant response rating,[4]; [20],20
same,"Plant response rating, Corn","[4]; Preemergence, 500 g ai/ha",90
same,"Ryegrass, Italian plant response rating",[5]; [24],55
same,"Ryegrass, Italian plant response rating",[5]; [25],80
same,"Plant response rating, Ryegrass, Italian",[5]; [26],30
same,"Ryegrass, Italian plant response rating",[5]; [27],95
same,Surinam Grass plant response rating,[6]; [24],80
same,Surinam Grass plant response rating,[6]; [25],100
same,"Plant response rating, Surinam Grass",[6]; [26],40
same,Surinam Grass plant response rating,[6]; [27],100
same,Corn plant response rating,[7]; [24],45
same,Corn plant response rating,[7]; [25],100
same,"Plant response rating, Corn",[7]; [26],25
same,Corn plant response rating,[7]; [27],100
same,"Crabgrass, Large plant response rating",[8]; [24],80
same,"Crabgrass, Large plant response rating",[8]; [25],100
same,"Plant response rating, Crabgrass, Large",[8]; [26],70
same,"Crabgrass, Large plant response rating",[8]; [27],100
same,"Foxtail, Giant plant response rating",[9]; [24],55
same,"Foxtail, Giant plant response rating",[9]; [25],98
same,"Plant response rating, Foxtail, Giant",[9]; [26],35
same,"Foxtail, Giant plant response rating",[9]; [27],100
same,Goosegrass plant response rating,[10]; [24],100
same,Goosegrass plant response rating,[10]; [25],100
same,"Plant response rating, Goosegrass",[10]; [26],100
same,Goosegrass plant response rating,[10]; [27],100
same,Johnsongrass plant response rating,[11]; [24],60
same,Johnsongrass plant response rating,[11]; [25],100
same,"Plant response rating, Johnsongrass",[11]; [26],45
same,Johnsongrass plant response rating,[11]; [27],100
same,Morningglory plant response rating,[12]; [24],100
same,Morningglory plant response rating,[12]; [25],100
same,"Plant response rating, Morningglory",[12]; [26],50
same,Morningglory plant response rating,[12]; [27],100
same,Nightshade plant response rating,[13]; [24],85
same,Nightshade plant response rating,[13]; [27],85
same,Pigweed plant response rating,[14]; [24],100
same,Pigweed plant response rating,[14]; [25],100
same,"Plant response rating, Pigweed",[14]; [26],0
same,Pigweed plant response rating,[14]; [27],100
same,Sunflower plant response rating,[15]; [24],85
same,Sunflower plant response rating,[15]; [25],85
same,"Plant response rating, Sunflower",[15]; [26],40
same,Sunflower plant response rating,[15]; [27],100
same,Velvetleaf plant response rating,[16]; [24],70
same,Velvetleaf plant response rating,[16]; [25],100
same,"Plant response rating, Velvetleaf",[16]; [26],0
same,Velvetleaf plant response rating,[16]; [27],100
same,"Plant response rating, Sedge, Umbrella","[17]; 62 g ai/ha, scale 0 to 100 (0 no effect, 100 complete control)",80
same,"Plant response rating, Sedge, Umbrella","[17]; 250 g ai/ha, scale 0 to 100, 0 no effect, 100 complete control, 13 to 15 days",100
